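Interpolation was linear, between the two tested concentrations surrounding the appropriate level; five concentrations were tested over 48 hours in 96-well plates. Here, GI50 denotes the concentration required for 50% inhibition of growth. At the TGI there is no net growth.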
Key:
Assay in all cases: NCI tumour cell line growth inhibition, 48 h
MALME-3M melanoma = system: MALME-3M melanoma
HCT-15 colon = system: HCT-15 colon
COLO 205 colon = system: COLO 205 colon
786-0 renal = system: 786-0 renal
SN12C renal = system: SN12C renal
SK-MEL-28 melanoma = system: SK-MEL-28 melanoma
HCT-116 colon = system: HCT-116 colon
A549 NSCLC = system: A549 NSCLC
SW-620 colon = system: SW-620 colon
RPMI-8226 leukemia = system: RPMI-8226 leukemia

Structure (SMILES) | TGI (MALME-3M melanoma) [µM] | TGI (HCT-15 colon) [µM] | TGI (COLO 205 colon) [µM] | TGI (786-0 renal) [µM] | TGI (SN12C renal) [µM] | TGI (SK-MEL-28 melanoma) [µM] | TGI (HCT-116 colon) [µM] | TGI (A549 NSCLC) [µM] | TGI (SW-620 colon) [µM] | TGI (RPMI-8226 leukemia) [µM] | GI50 (MALME-3M melanoma) [µM] | GI50 (HCT-15 colon) [µM] | GI50 (COLO 205 colon) [µM] | GI50 (786-0 renal) [µM] | GI50 (SN12C renal) [nM] | GI50 (SK-MEL-28 melanoma) [µM] | GI50 (HCT-116 colon) [µM] | GI50 (A549 NSCLC) [µM] | GI50 (SW-620 colon) [µM] | GI50 (RPMI-8226 leukemia) [µM]
N/C(CC(=O)Nc1cc(C(F)(F)F)ccc1Cl)=N\O | > 100 | > 100 | > 100 | > 100 | > 100 | > 100 | > 100 | > 100 | > 100 | > 100 | – | – | – | – | – | – | – | – | – | –
O=C(C#Cc1c[nH]c(=O)[nH]c1=O)c1ccccc1Cl | 32.1 | 28.7 | 29.8 | 32 | 27.5 | 32 | 30.9 | > 100 | 27.2 | 71.7 | – | – | – | – | – | – | – | – | – | –
CN(C)CC(=O)N1CCC(c2ccc(NC(=O)c3ncc(C#N)[nH]3)c(C3=CCCCC3)c2)CC1 | 16.1 | 9.22 | 14.1 | 13.1 | 16.9 | 4.68 | 14.1 | 17.2 | 18.7 | 34.6 | 4.3 | 2.71 | 4.43 | 3.22 | 2740 | 2.2 | 3.97 | 5 | 4.98 | 8.76
COc1ccc(-c2nn(-c3cccc(Cl)c3)cc2C2CC(c3ccccc3)=NN2C(C)=O)cc1 (stereo not given) | 35.2 | > 100 | > 100 | 97.2 | > 100 | > 100 | > 100 | > 100 | > 100 | > 100 | 4.87 | > 100 | > 100 | 6.87 | 8350 | 6.16 | 4.2 | 7.58 | > 100 | > 100
COc1cc(-n2cc(-c3ccc(Cl)c(Cl)c3)nc2SCc2ccccc2)cc(OC)c1OC | > 100 | > 100 | > 100 | > 100 | > 100 | > 100 | > 100 | > 100 | > 100 | > 100 | > 100 | > 100 | > 100 | > 100 | > 100000 | > 100 | 80.7 | > 100 | > 100 | > 100
C[C@@H]1CC[C@@H]2[C@@H]1[C@H](OC(=O)/C=C/c1ccccc1)[C@]1(c3ccccc3)C[C@@H](OC(=O)CO)[C@@]2(C)O1 | 31.4 | 32.7 | 32.7 | 29.3 | 22.4 | 33.4 | 27.6 | 33.8 | 42.6 | 38.9 | 16.5 | 12.7 | 16.1 | 11.7 | 538 | 16.3 | 12.7 | 14.8 | 19.1 | 10.3
CC1(C)N=C(N)N=C(N)N1c1ccc(CCCCc2ccc(S(=O)(=O)F)cc2)cc1 | 32.4 | > 100 | 19.8 | 19.1 | 17.7 | 20.3 | 15.8 | > 100 | 15.4 | 10.8 | 12.2 | 3.16 | 2.28 | 0.64 | 1200 | 4.57 | 0.373 | 0.623 | 0.415 | 0.522
